Laboratory results: US3954793A, “1-(2-Propynyl)-1 H-indazole compounds” (priority 1973, dated 1976)
Read-outs that look alike come from different tables or passages of the source.

Columns and labels:
[1] = system: Wilson strain house flies; assay type: in vivo, Wilson strain (susceptible); conditions: for Contact Synergistic Ratio, Pyrolan: LC50 pyrolan alone / LC50 with synergist
Experimental: The required solutions of the insecticide and of the synergist compound were prepared in acetone at a concentration of 1 milligram per milliliter. One-pint wide mouth glass jars were coated with the appropriate insecticide-synergist combination by rolling the jars containing aliquots of the appropriate solutions diluted to three milliliters with acetone to deposit, by evaporation, a film of the test materials. The flies were transferred under carbon dioxide anesthesia and held in the jar at room temperature. Perforated aluminum foil was used to cover the jars and to hold cotton saturated with 10% sugar solution. Counts were made at intervals, but the recorded mortality was based on 24-hour kill, rather than knockdown. All prostrate non-moving flies were considered dead. A determination was then made of the contact synergistic ratio [SR], which is the ratio of the LC50 of insecticide alone to the LC50 of the insecticide when applied together with the synergist. The LC50 of the insecticide was estimated from a log-probit plot of percent kill versus dosage. […] The LC50 of the combination of insecticide and synergist was determined at a synergist to insecticide parts by weight ratio of five to one.

[2] = system: Swiss albino, white male mice; test: acute toxicity and synergism of acute toxicity in mice; assay type: in vivo; conditions: for number of mice dead, with Dimetilan: 48 hours, eight mice
Experimental: To determine the acute toxicity of dimetilan alone, eight dosage levels of Dimetilan, ranging from 4 to 32 mg per kg were applied to eight, Swiss, albino, white, male mice per dosage level. The mice weighed approximately 23 to 27 grams and were five to six weeks old. The Dimetilan was administered intraperitoneally in 0.1 ml of corn oil one hour after the administration of the same dose of corn oil alone.
To determine the acute toxicity of the synergist alone, various synergists were administered intraperitoneally at a dose of 1000 mg/kg to each of a group of eight mice. The number of animals dead at the end of 72 hours is reported in the left hand column of Table XXXXVI.
The synergism of the acute toxicity of Dimetilan by various synergists was determined by tests on Swiss albino, white male mice aged five to six weeks and weighing 23 to 27 grams. The synergists and insecticides were dissolved in corn oil and the drugs were dissolved in distilled water. All compounds were administered intraperitoneally by injection in the lower quadrent of the abdomen. The synergist was administered in 0.1 ml of corn oil one hour prior to administration of the insecticide. Eight mice were treated, per dosage, with each synergist. The mice were watched for a minimum of 6 hours while held in a glass jar with bedding individually after intraperitoneal injection of the test solutions. Lethality was noted, the animals were weighed and transferred in cages, and food and water were supplied. Control mice were given 0.1 ml of corn oil at the time of administration of the synergist to the test mice and 0.1 ml corn oil plus Dimetilan at the time of administration of the insecticide to the test mice.
By the same procedure, the synergism of acute toxicity of GS 13005, Secobarbital and 6-dimethylamino-4,4-diphenyl-3-heptanone [Methadone] was determined.

male mice = test: extension of sleeping time of depressant drugs by synergists; assay type: in vivo, male mice (Swiss albino white); conditions: for Mean Sleeping Time, Noludar / Relative Sleeping Time, Noludar: Noludar 110 mg/kg; for Relative Sleeping Time, Noludar / Relative Sleeping Time, Secobarbital: treated/control; for Mean Sleeping Time, Secobarbital / Relative Sleeping Time, Secobarbital: Secobarbital 37 mg/kg
Experimental: The selectivity of the synergist compounds of this invention is illustrated by the results of sleeping-time extension tests and of acute toxicity tests on Swiss albino white male mice.
The effect of various synergist compounds on sleeping time of sodium secobarbital [Secobarbital] and of 3,3-diethyl-5-methyl-2,4-dioxypiperidine [Noludar] was determined by administering the drug, with and without synergist, to approximately 38-day old male mice weighing from 25 to 30 grams. Synergists were administered in each of two doses, 74.0 mg/kg (dilution being 2.0 mg/0.1 ml corn oil), and 110.0 mg/kg (dilution 3.0 mg/0.1 ml oil). Secobarbital was administered at a dose of 37.0 mg/kg (dilution 1.0 mg/0.1 ml water). Noludar was administered at a dose of 110.0 mg/kg (dilution 3.0 mg/0.1 ml water). The synergist was administered one hour prior to administration of the Secobarbital or Noludar. Secobarbital and Noludar sleeping times were obtained for both the control (drug only) and the treated (synergist plus drug) mice by noting the time lapse between the administration of the drug and the recovery of the righting reflex, i.e. when the animal regains conciousness and can walk up an inclined wooden tray with coordination. The relative sleeping time (R.S.) was noted. The R.S. is the extended sleeping time in the treated mice (synergist plus drug) divided by the sleeping time in the control mice (drug only). The mean sleeping time for the treated mice and the R.S. are shown on Table XXXXIV for various synergist compounds.

[3] = system: IN/WHO strain house flies; test: topical application, percent kill after 24 hours, susceptible IN/WHO strain; assay type: in vivo, female); conditions: for percent kill after 24 hours, synergist alone (GS 13005 part of Table XXXI): GS 13005 0, synergist 1 μg/fly; for percent kill after 24 hours, with GS 13005: GS 13005 0.10 + synergist 0.50 μg/fly; for percent kill after 24 hours, with Mobam: Mobam 0.20 + synergist 1 μg/fly; for percent kill after 24 hours, synergist alone: insecticide 0, synergist 1 μg/fly
Experimental: (§1) In Table IX, and in the tables following it, the doses of topically applied insecticides and of synergists unless otherwise noted are expressed as micrograms per fly (μg/fly).
(§2) The synergistic effect of O-(2-propynyl) oximes with mobam was determined from topical application tests on susceptible, female, IN/WHO strain house flies and from tests on resistant, female, Rutgers A strain house flies. The synergist and insecticide were dissolved in ACS Grade acetone in such quantities that a 1.0 μ liter volume applied to the thorax of 3-to-5 day old CO2 -anesthetized female adult house flies contained the desired dosage. After being treated, the flies were confined, 10 to a plaster petri dish, with 3-5 dishes/treament, and held for 24-hr. observation of mortality. Reconstituted skim milk on cotton dental wicks was provided during the holding period. The percent kills after 24 hours are shown in Table X for the IN/WHO strain and Table XI for the Rutgers A strain.
(§3) The synergistic effect of benzyl 2-propynyl ethers with mobam was determined from topical application tests on IN/WHO and Rutgers A strain houseflies, following the procedure of Example 5. The percent kills after 24 hours are shown in Table XIV for the IN/WHO strain and in Table XV for the Rutgers A strain.
The effects of varying the insecticide dose and the synergist-insecticide ratio are further illustrated, with synergist compounds II-D, II-E, II-F and Mobam insecticide, in Tables XVI, XVII and XVIII. […]
The effect on IN/WHO flies of synergist compound IV-C, identified in Table IV, with mobam was determined by the topical application procedure of Example 5. […]
(§4) The synergistic effect with GS 13005 of compounds I-A, I-B, I-D, I-E, I-F, I-G and I-I was determined from topical application tests to IN/WHO strain, Rutgers A strain and polyvalent CH strain houseflies using the procedures of Example 5. The percent kills of the IN/WHO strain flies after 24 hours are shown in Table XXVIII; of the Rutgers A strain, in Table XXIX; and of the polyvalent CH strain, in Table XXX. The doses of insecticide alone to the CH strain files caused 10-40% mortality.
The synergistic effect with Diazinon and GS 13005 of various of the benzyl 2-propynyl ethers identified in Tables II and IIa was determined by topical application tests on IN/WHO strain, and Rutgers A strain and polyvalent, resistant, CH strain houseflies using the procedures of Example 5. The percent kills after 24 hours of IN/WHO strain flies are shown in Table XXXI; of Rutgers A strain flies, in Table XXXII; and of CH strain flies, in Table XXXIII. The doses of insecticide alone to the CH strain flies caused 10-40% mortality. […]
(§5) The synergistic effect on IN/WHO strain flies and Rutgers A strain flies of compound IV-C with GS 13005 and with Diazinon was determined by the topical application procedure of Example 5. The percent kills of IN/WHO strain flies after 24 hours are shown in Tables XXXVI and XXXVII; the percent kills of Rutgers A strain flies are shown in Tables XXXVIII and XXXIX.

[4] = system: Rutgers A strain house flies; test: topical application, percent kill after 24 hours, resistant Rutgers A strain; assay type: in vivo, female); conditions: for percent kill after 24 hours, with GS 13005: GS 13005 1.0 + synergist 5.0 μg/fly; for percent kill after 24 hours, synergist alone: insecticide 0, synergist 5.0 μg/fly
Experimental: as §1, §2, §3
The synergistic effect with Diazinon of compounds I-B, I-D, I-F, I-G, I-H and I-I, identified in Tables I and Ia, was determined from topical application tests on IN/WHO strain houseflies and on Rutgers A strain houseflies by the procedure of Example 5. The percent kills after 24 hours are shown in Table XXV for the IN/WHO strain and Table XXVI for the Rutgers A strain.
as §4
The synergistic effect with Diazinon and GS 13005 of various of the benzyl 2-propynyl ethers identified in Tables II and IIa was determined by topical application tests on IN/WHO strain, and Rutgers A strain and polyvalent, resistant, CH strain houseflies using the procedures of Example 5. The percent kills after 24 hours of IN/WHO strain flies are shown in Table XXXI; of Rutgers A strain flies, in Table XXXII; and of CH strain flies, in Table XXXIII. The doses of insecticide alone to the CH strain flies caused 10-40% mortality.
as §5

[5] = synergist to insecticide 5:1 by weight
[6] = Dimetilan 8 + synergist 240 mg/kg i.p.
[7] = synergist 110 mg/kg one hour prior
[8] = synergist 74 mg/kg one hour prior
[9] = Dimetilan 8 + synergist 80 mg/kg i.p.

| Compound | Contact Synergistic Ratio, Pyrolan [1, 5] | Contact Synergistic Ratio, Carbaryl ([1]; in vivo) | number of mice dead, with Dimetilan [2, 6] | Mean Sleeping Time, Noludar (male mice; [7]) | Relative Sleeping Time, Noludar (male mice; synergist 110 mg/kg) | Mean Sleeping Time, Secobarbital (male mice; [8]) | Relative Sleeping Time, Secobarbital (male mice; synergist 74 mg/kg) | Mean Sleeping Time, Secobarbital (male mice; [7]) | Relative Sleeping Time, Secobarbital (male mice; synergist 110 mg/kg) | also measured |
| --- | --- | --- | --- | --- | --- | --- | --- | --- | --- | --- |
| C#CCn1nc(Cl)c2ccc([N+](=O)[O-])cc21 [III-C, N-(2-propynyl)-3-chloro-6-nitroindazole] | 10 | 53 |  |  |  |  |  |  |  |  |
| C#CCON=Cc1ccc(N(C)C)cc1 [I-C] | 20 | 200 | 0 | 34 min | 1.0 | 30 min | 1.1 | 108 min | 1.8 |  |
| C#CCn1nc(Cl)c2ccccc21 [III-B] | 30 | 117 | 0 | 46 min | 1.0 |  |  | 66 min | 1.3 |  |
| Cc1cc(OC(=O)N(C)C)n(-c2ccccc2)n1 [Pyrolan, 3-methyl-1-phenyl-5-pyrazolyl-N-dimethylcarbamate, reference compound] |  |  |  |  |  |  |  |  |  | 24 hour percent mortality, Pyrolan alone ([3]; Pyrolan 0.63 μg/fly): 0%; LC50 of insecticide alone ([1]; Wilson strain fly, 24-hour kill, no synergist): 0.15 mg/jar |
| C#CCOCc1ccc(Cl)cc1 [II-A] | 7 | 50 |  |  |  |  |  |  |  |  |
| C#CCOCc1ccc(Cl)cc1Cl [II-B] | 15 | 50 |  |  |  |  |  |  |  |  |
| C#CCOCc1ccc(Cl)cc1[N+](=O)[O-] [II-J] |  |  | 4 | 70 min | 2.2 | 27 min | 1.0 | 30 min | 1.4 | percent kill after 24 hours, synergist alone (GS 13005 part of Table XXXI) [3]: 13%; percent kill after 24 hours, with GS 13005 [3]: 99%; percent kill after 24 hours, with Mobam [3]: 100%; percent kill after 24 hours, synergist alone [3]: 13%; number of mice dead, with Dimetilan [2, 9]: 0; number of mice dead, with GS 13005 ([2]; GS 13005 71 + synergist 213 mg/kg): 6; number of mice dead, with Methadone ([2]; Methadone 32 + synergist 215 mg/kg): 3; number of mice dead, with Secobarbital ([2]; Secobarbital 90 + synergist 215 mg/kg): 0; percent kill after 24 hours, with GS 13005 [4]: 100%; percent kill after 24 hours, with Mobam ([4]; Mobam 0.40 + synergist 2.0 μg/fly): 70%; percent kill after 24 hours, synergist alone [4]: 0% |
| C#CCOC(c1cccc2ccccc12)C(C)[N+](=O)[O-] (centres unmarked) [IV-B, 2-propynyl 1-naphthyl-2-nitropropyl ether] | 10 | 50 |  |  |  |  |  |  |  |  |
| C#CCOCc1ccc([N+](=O)[O-])cc1Cl [II-N] |  |  | 4 | 58 min | 1.9 | 20 min | 1.0 | 39 min | 1.7 | percent kill after 24 hours, with GS 13005 [3]: 84%; percent kill after 24 hours, with Mobam [3]: 97%; number of mice dead, with Dimetilan [2, 9]: 0; percent kill after 24 hours, with GS 13005 [4]: 60% |
| C#CCOCc1ccc2c(c1)OCO2 [II-G] | 15 |  |  |  |  |  |  |  |  | Contact Synergistic Ratio, Carbaryl ([1]; LC50 carbaryl alone / LC50 with synergist, synergist to insecticide 5:1 by weight): 100 |
| C#CCOCc1ccc(Cl)c([N+](=O)[O-])c1 [II-M] |  |  | 3 | 47 min | 2.1 | 29 min | 1.0 | 47 min | 2 | percent kill after 24 hours, synergist alone (GS 13005 part of Table XXXI) [3]: 10%; percent kill after 24 hours, with GS 13005 [3]: 79%; percent kill after 24 hours, with Mobam [3]: 90%; percent kill after 24 hours, synergist alone [3]: 10%; number of mice dead, with Dimetilan [2, 9]: 0; percent kill after 24 hours, with GS 13005 [4]: 63%; percent kill after 24 hours, synergist alone [4]: 0% |
